Where two headings read alike, the source gives them in different places.
Assays:
[1] = target: T1, SF3b complexes (Homo sapiens, UniProt O75533+Q7RTV0); experiment: Scintillation proximity assay (SPA) with [3H]-labelled pladienolide probe; type: binding; settings: SF3B1 (WT); geometric mean; read-out: SPA-ATS GMean IC50 (nM) SF3B1 (WT)
T1 construct: endogenous in cells; host or cells: Nuclear extracts; A HeLa S3 extract preparation is described for the in vitro splicing assay
Method in brief: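 SF3b complexes captured from nuclear extracts on anti-SF3B1 antibody SPA beads; test compounds pre-incubated 30 min before 2.5 nM [3H]-pladienolide probe added, then 30 min incubation. Bound probe read by scintillation; values from non-linear regression of concentration–response curves.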

[2] = test system: NCI-H1568 cells (high MCL1); experiment: Cell proliferation and viability, CellTiter-Glo, 72 hours; type: cell-based; settings: for GI50: geometric mean
Method in brief: (§1)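 ATP luminescence (CellTiter-Glo) was measured 72 h after treatment with compound at 10 μM–100 pM (11 points, half-log) in 0.1% DMSO. The Panc line was grown in RPMI-1640 plus insulin and 15% FBS, the other in 10% FBS. Data were normalised to time zero and vehicle controls, where −100% is cidal and 0% static.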

[3] = test system: Panc 05.04 cells (SF3b K700E mutant); experiment: as above; type: cell-based; settings: for GI50: geometric mean
Method in brief: as §1

[4] = test system: Ad2 variant pre-mRNAs spliced in HeLa S3 nuclear extracts; experiment: In vitro splicing assay (IVS), RT-qPCR of spliced product; type: biochemical; settings: for IC50: geometric mean; for Ratio Ad2.1/2.2: ratio of IVS IC50 Ad2.1 to Ad2.2
Method in brief: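 Read-out is one-step TaqMan RT-qPCR of spliced Ad2 mRNA with Ftz as reference, normalized to DMSO and fit by non-linear regression. Reactions held HeLa S3 nuclear extract, 2 ng Ad2-derived pre-mRNA and test compound, with 15 min preincubation. Splicing was started with ATP-containing activation buffer and run 90 min at 30 °C.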

[5] = NCI-H1568, 72 h, read-out: CTGlo-ATS GMean GI50 (nM) 72 h NCIH1568.1, NCIH1568.1 cells, 72 h
[6] = NCIH1568.1 cells, 72 h, −100% cidal, 0% static, 100% maximal growth
[7] = PANC0504.1 cells, 72 h, −100% cidal, 0% static, 100% maximal growth
[8] = Panc 05.04, 72 h, read-out: CTGlo-ATS GMean GI50 (nM) 72 h PANC0504.1, PANC0504.1 cells, 72 h
[9] = NCI-H1568, read-out: CTGlo-ATS GMean GI50 (nM) 72 h NCIH1568.1, NCIH1568.1 cells, 72 h
[10] = Panc 05.04, read-out: CTGlo-ATS GMean GI50 (nM) 72 h PANC0504.1, PANC0504.1 cells, 72 h
[11] = 72 h, NCIH1568.1, -100% = cidal, 0% = static, 100% = uninhibited growth
[12] = NCI-H1568, read-out: CTGlo-ATS GMean GI50 (nM) 72 h NCIH1568.1, 72 h, NCIH1568.1
[13] = 72 h, PANC0504.1, -100% = cidal, 0% = static, 100% = uninhibited growth
[14] = Panc 05.04, read-out: CTGlo-ATS GMean GI50 (nM) 72 h PANC0504.1, 72 h, PANC0504.1
[15] = Ad2.1 pre-mRNA substrate, read-out: qPCR-IVS-ATS GMean IC50 (nM) Ad2.1
[16] = Ad2.2 pre-mRNA substrate, read-out: qPCR-IVS-ATS GMean IC50 (nM) Ad2.2

SMILES | IC50 [1] [nM] | GI50 [2, 5] [nM] | CTGlo-ATS Mean MinResponse % 72 h NCIH1568.1 [2, 6] [%] | CTGlo-ATS Mean MinResponse % 72 h NCIH1568.1 [2, 11] [%] | IC50 [4, 15] [nM] | IC50 [4, 16] [nM] | also measured
COCCN1CCN(c2cc(F)cc(/C=C(\C)[C@H]3OC(=O)C[C@H](O)CC[C@H](C)[C@@H](OC(=O)N4CCN(C)CC4)/C=C/[C@@H]3C)c2)CC1=O [Compound 105] | 2.87 | 6.95 | −68.464 |  |  |  | CTGlo-ATS Mean MinResponse % 72 h PANC0504.1 [3, 7]: −90.949%; GI50 [3, 8]: 5.85 nM
C/C(=C\c1cc(F)cc(N2CCN(S(=O)(=O)c3cccnc3)CC2)c1)[C@H]1OC(=O)C[C@H](O)CC[C@H](C)[C@@H](OC(=O)N2CCN(C)CC2)/C=C/[C@@H]1C [Compound 112] | 12.8 |  | −86.973 |  |  |  | GI50 [2, 9]: 6.23 nM; CTGlo-ATS Mean MinResponse % 72 h PANC0504.1 [3, 7]: −80.066%; GI50 [3, 10]: 8.29 nM
C/C(=C\c1cc(F)cc(N2CCN(S(=O)(=O)c3cnn(C)c3)CC2)c1)[C@H]1OC(=O)C[C@H](O)CC[C@H](C)[C@@H](OC(=O)N2CCN(C)CC2)/C=C/[C@@H]1C [Compound 111] | 28 | 12.8 | −81.303 |  |  |  | CTGlo-ATS Mean MinResponse % 72 h PANC0504.1 [3, 7]: −71.803%; GI50 [3, 8]: 13.9 nM
C/C(=C\c1cccc(S(=O)(=O)N2CCC(F)(F)C2)c1)[C@H]1OC(=O)C[C@H](O)CC[C@H](C)[C@@H](OC(=O)N2CCN(C)CC2)/C=C/[C@@H]1C [Compound 204, [(2S,3S,4E,6R,7S,10R)-2-[(E)-1-[3-(3,3-difluoropyrrolidin-1-yl)sulfonylphenyl]prop-1-en-2-yl]-10-hydroxy-3,7-dimethyl-12-oxo-1-oxacyclododec-4-en-6-yl] 4-methylpiperazine-1-carboxylate] | 23.5 |  |  | −24.924 |  |  | GI50 [2, 12]: 81.9 nM; CTGlo-ATS Mean MinResponse % 72 h PANC0504.1 [3, 13]: −94.081%; GI50 [3, 14]: 82 nM
C/C(=C\c1cc(F)cc(Cl)c1)[C@H]1OC(=O)C[C@H](O)CC[C@H](C)[C@@H](OC(=O)N2CCN(C)CC2)/C=C/[C@@H]1C [Compound 167] | 3.19 |  | −70.414 |  |  |  | GI50 [2, 9]: 52.4 nM; CTGlo-ATS Mean MinResponse % 72 h PANC0504.1 [3, 7]: −85.316%; GI50 [3, 10]: 34.1 nM
C/C(=C\C1=CCCN(C(=O)OC(C)(C)C)C1)[C@H]1OC(=O)C[C@H](O)CC[C@H](C)[C@@H](OC(=O)N2CCN(C)CC2)/C=C/[C@@H]1C [Compound 219, [(2S,3S,4E,6R,7S,10R)-10-hydroxy-3,7-dimethyl-2-[(E)-1-[1-[(2-methylpropan-2-yl)oxycarbonyl]-3,6-dihydro-2H-pyridin-5-yl]prop-1-en-2-yl]-12-oxo-1-oxacyclododec-4-en-6-yl] 4-methylpiperazine-1-carboxylate] | 7.96 |  |  | −42.617 |  |  | GI50 [2, 12]: 42.4 nM; CTGlo-ATS Mean MinResponse % 72 h PANC0504.1 [3, 13]: −91.460%; GI50 [3, 14]: 24.6 nM
CCC(=O)N1CCC(N(C)c2cc(F)cc(/C=C(\C)[C@H]3OC(=O)C[C@H](O)CC[C@H](C)[C@@H](OC(=O)N4CCN(C)CC4)/C=C/[C@@H]3C)c2)CC1 [Compound 178] | 2.16 |  | −77.714 |  | 20.4 | 4.31 | GI50 [2, 9]: 6.85 nM
C/C(=C\c1cc(F)cc(N2CCN(C(=O)Cn3cccn3)CC2)c1)[C@H]1OC(=O)C[C@H](O)CC[C@H](C)[C@@H](OC(=O)N2CC[C@@H](F)C2)/C=C/[C@@H]1C [Compound 231, [(2S,3S,4E,6R,7S,10R)-2-[(E)-1-[3-fluoro-5-[4-(2-pyrazol-1-ylacetyl)piperazin-1-yl]phenyl]prop-1-en-2-yl]-10-hydroxy-3,7-dimethyl-12-oxo-1-oxacyclododec-4-en-6-yl] (3R)-3-fluoropyrrolidine-1-carboxylate] | 26 |  |  | −59.209 | 513 | 5.28 | Ratio Ad2.1/2.2 [4]: 97.051; GI50 [2, 12]: 22.7 nM
CCCS(=O)(=O)N1CCC(N(C)c2cc(F)cc(/C=C(\C)[C@H]3OC(=O)C[C@H](O)CC[C@H](C)[C@@H](OC(=O)N4CCN(C)CC4)/C=C/[C@@H]3C)c2)CC1 [Compound 182] | 86.4 | 23.4 | −69.521 |  | 208 | 40.1 | 
CC(=O)N1CCC(N(C)c2cc(F)cc(/C=C(\C)[C@H]3OC(=O)C[C@H](O)CC[C@H](C)[C@@H](OC(=O)N4CCN(C)CC4)/C=C/[C@@H]3C)c2)CC1 [Compound 177] | 2.38 |  | −80.643 |  | 18.2 | 10.3 | GI50 [2, 9]: 3.62 nM
C/C(=C\c1cc(F)c2cnn(C3CCN(S(C)(=O)=O)CC3)c2c1)[C@H]1OC(=O)C[C@H](O)CC[C@H](C)[C@@H](OC(=O)N2CCN(C)CC2)/C=C/[C@@H]1C [Compound 196] | 13.2 |  |  | −90.418 | 30 | 19.6 | Ratio Ad2.1/2.2 [4]: 1.529; GI50 [2, 12]: 1.83 nM
C/C(=C\c1cc(F)c2nnn([C@H](C)CO)c2c1)[C@H]1OC(=O)C[C@H](O)CC[C@H](C)[C@@H](OC(=O)N2CCN(C)CC2)/C=C/[C@@H]1C [Compound 150] | 1.32 |  | −68.000 |  | 8.58 | 11 | GI50 [2, 9]: 2.19 nM
C/C(=C\c1cc(F)cc(N2CCCNC2=O)c1)[C@H]1OC(=O)C[C@H](O)CC[C@H](C)[C@@H](OC(=O)N2CCN(C)CC2)/C=C/[C@@H]1C [Compound 79] | 2.14 | 4.01 | −72.802 |  | 18 | 12.3 | 
CC(=O)N1CCC(CN(C)c2cc(F)cc(/C=C(\C)[C@H]3OC(=O)C[C@H](O)CC[C@H](C)[C@@H](OC(=O)N4CCN(C)CC4)/C=C/[C@@H]3C)c2)CC1 [Compound 186] | 12.6 | 14.5 | −70.969 |  | 41.8 | 17.4 | 
C/C(=C\c1cc(F)cc(N2CCN(C(=O)Cn3cccn3)CC2)c1)[C@H]1OC(=O)C[C@H](O)CC[C@H](C)[C@@H](OC(=O)N2CCN(C3CCCCCC3)CC2)/C=C/[C@@H]1C [Compound 236, [(2S,3S,4E,6R,7S,10R)-2-[(E)-1-[3-fluoro-5-[4-(2-pyrazol-1-ylacetyl)piperazin-1-yl]phenyl]prop-1-en-2-yl]-10-hydroxy-3,7-dimethyl-12-oxo-1-oxacyclododec-4-en-6-yl] 4-cycloheptylpiperazine-1-carboxylate] | 84 |  |  | −90.096 | 49.9 | 56.2 | Ratio Ad2.1/2.2 [4]: 0.889; GI50 [2, 12]: 9.92 nM
C/C(=C\c1cc(F)cc(N2CCN(C(=O)Cn3cccn3)CC2)c1)[C@H]1OC(=O)C[C@H](O)CC[C@H](C)[C@@H](OC(=O)N2CCN(Cc3cccnc3)CC2)/C=C/[C@@H]1C [Compound 252, [(2S,3S,4E,6R,7S,10R)-2-[(E)-1-[3-fluoro-5-[4-(2-pyrazol-1-ylacetyl)piperazin-1-yl]phenyl]prop-1-en-2-yl]-10-hydroxy-3,7-dimethyl-12-oxo-1-oxacyclododec-4-en-6-yl] 4-(pyridin-3-ylmethyl)piperazine-1-carboxylate] | 21.8 |  |  | −76.109 | 22.6 | 27.4 | Ratio Ad2.1/2.2 [4]: 0.825; GI50 ([2]; NCI-H1568, 72 h, read-out: CTGlo-ATS GMean GI50 (nM) 72 h NCIH1568.1, 72 h, NCIH1568.1): 10.3 nM
C/C(=C\c1cc(F)cc(N2CCN(C(=O)[C@@H]3CCOC3)CC2)c1)[C@H]1OC(=O)C[C@H](O)CC[C@H](C)[C@@H](OC(=O)N2CCN(C)CC2)/C=C/[C@@H]1C [Compound 152] | 3.83 | 1.51 | −80.509 |  | 16.2 | 8.39 | 
